Measured values reported in the supplement of paper PMC10307832.

What was measured:
Assay in all cases: relative viability (nuclei count vs DMSO), 5 days (fraction); higher = more cells survive
Serdemetan + Crizotinib = compound: c1ccc2c(CCNc3ccc(Nc4ccncc4)cc3)c[nH]c2c1 [Serdemetan] + C[C@@H](Oc1cc(-c2cnn(C3CCNCC3)c2)cnc1N)c1c(Cl)ccc(F)c1Cl [Crizotinib] (partner 1 µM)
How it was run: (§1)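 The day after seeding in 1536-well plates, lung cancer cell lines were treated by pin tool with a single drug, or with a fixed anchor-drug dose together with five library-drug doses (not always all listed) in √10 steps. After 5 days, a combined fix-and-stain solution (final 0.05% Triton X-100, 1% formaldehyde, 1 ug/ml Hoechst) was added. Nuclei counted on 4× images gave relative viability as treated counts over vehicle counts, reported as the median of duplicate plates.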

Selisistat + Pictilisib = compound: C1CC(C2=C(C1)C3=C(N2)C=CC(=C3)Cl)C(=O)N [Selisistat] + CS(=O)(=O)N1CCN(Cc2cc3nc(-c4cccc5[nH]ncc45)nc(N4CCOCC4)c3s2)CC1 [Pictilisib] (partner 1 µM)
How it was run: as §1

Selisistat + Decitabine = compound: C1CC(C2=C(C1)C3=C(N2)C=CC(=C3)Cl)C(=O)N [Selisistat] + Nc1ncn([C@H]2C[C@H](O)[C@@H](CO)O2)c(=O)n1 [Decitabine] (partner 2 µM)
How it was run: as §1

Serdemetan + Trametinib = compound: c1ccc2c(CCNc3ccc(Nc4ccncc4)cc3)c[nH]c2c1 [Serdemetan] + CC(=O)Nc1cccc(-n2c(=O)n(C3CC3)c(=O)c3c(Nc4ccc(I)cc4F)n(C)c(=O)c(C)c32)c1 [Trametinib] (partner 0.02 µM)
How it was run: as §1

## UMC-11
Serdemetan + Crizotinib; first compound 0.04 µM
  relative viability: 0.661
Serdemetan + Crizotinib; first compound 0.1265 µM
  relative viability: 0.591
Serdemetan + Crizotinib; first compound 0.4 µM
  relative viability: 0.577
Serdemetan + Crizotinib; first compound 1.265 µM
  relative viability: 0.482
Serdemetan + Crizotinib; first compound 4 µM
  relative viability: 0.358
Selisistat + Pictilisib; first compound 0.4 µM
  relative viability: 0.793
Selisistat + Pictilisib; first compound 1.265 µM
  relative viability: 0.784
Selisistat + Pictilisib; first compound 4 µM
  relative viability: 0.618
Selisistat + Pictilisib; first compound 12.65 µM
  relative viability: 0.742
Selisistat + Pictilisib; first compound 40 µM
  relative viability: 0.809
Selisistat + Decitabine; first compound 0.4 µM
  relative viability: 0.604
Selisistat + Decitabine; first compound 1.265 µM
  relative viability: 0.688
Selisistat + Decitabine; first compound 4 µM
  relative viability: 0.646
Selisistat + Decitabine; first compound 12.65 µM
  relative viability: 0.676
Selisistat + Decitabine; first compound 40 µM
  relative viability: 0.637
Serdemetan + Trametinib; first compound 0.04 µM
  relative viability: 0.703
Serdemetan + Trametinib; first compound 0.1265 µM
  relative viability: 0.672
Serdemetan + Trametinib; first compound 0.4 µM
  relative viability: 0.619
Serdemetan + Trametinib; first compound 1.265 µM
  relative viability: 0.388
Serdemetan + Trametinib; first compound 4 µM
  relative viability: 0.656
